Activity calls are given as the source filed them.
Legend:
[1] = molecular target: T1, Oxysterols receptor LXR-beta (Homo sapiens, UniProt P55055); assay type: functional, cell-based;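 further: Cell-based luminescence dose-response assay of agonist activity at LXR, run as a confirmatory counterscreen to a daf-12 agonist screen; HEK293 cells with Gal4-LXR fusion and GAL4-driven luciferase reporter; agonist potency from rising luciferase signal of a Gal4-LXR reporter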
T1 sequence (P55055 whole entry): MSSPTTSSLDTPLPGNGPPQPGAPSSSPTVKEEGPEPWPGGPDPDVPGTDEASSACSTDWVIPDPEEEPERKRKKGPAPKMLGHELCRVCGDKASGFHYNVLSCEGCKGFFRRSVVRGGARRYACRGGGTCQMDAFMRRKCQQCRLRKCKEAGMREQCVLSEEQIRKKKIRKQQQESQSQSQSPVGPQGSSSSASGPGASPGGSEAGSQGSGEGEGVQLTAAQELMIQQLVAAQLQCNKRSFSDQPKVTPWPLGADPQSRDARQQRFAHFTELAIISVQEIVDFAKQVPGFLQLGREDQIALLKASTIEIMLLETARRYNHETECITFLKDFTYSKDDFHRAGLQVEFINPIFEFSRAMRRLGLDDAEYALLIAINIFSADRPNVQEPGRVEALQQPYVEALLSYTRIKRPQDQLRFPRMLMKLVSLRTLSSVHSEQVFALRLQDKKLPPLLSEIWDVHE

[2] = cells
[3] = system: BJ; experiment: cytotoxicity toward BJ-TERT fibroblasts, dose response, cell-based, RAS-independent, luminescence (AID 1933); assay type: functional; conditions: Homo sapiens
[4] = system: BJ; experiment: cells; assay type: functional, cell-based; conditions: Homo sapiens
[5] = system: BJ; experiment: cytotoxicity toward BJ-TERT-LT-ST fibroblasts, dose response, cell-based, RAS-independent, luminescence (AID 1935); assay type: functional; conditions: Homo sapiens;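 further: BJ fibroblasts immortalized with TERT plus LT and ST oncogenes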
[6] = cytotoxicity toward DRD oncogenic fibroblasts, dose response, cell-based, non-viral oncogenic, luminescence (AID 1934); assay type: functional; conditions: Homo sapiens
[7] = Luminescence Cell-Based Dose Retest to Confirm Inhibitors of Cancer Stem Cells. [Related pubchem assays (depositor defined):AID2717, AID2721]; assay type: functional; conditions: Homo sapiens
[8] = system: HEK293; experiment: inhibitors of LMP1-driven NF-kB reporter, dose response, cell-based, HEK293, luciferase, cherry-pick (AID 588343); assay type: functional; conditions: Homo sapiens
[9] = system: BJ; experiment: cytotoxicity toward Ras-transformed BJeLR fibroblasts, dose response, cell-based, alamar blue fluorescence, cherrypicked samples (AID 2631); assay type: functional; conditions: Homo sapiens;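 further: confirmatory dose-response assay in RAS-dependent BJ fibroblasts engineered with TERT, LT and ST, with cytotoxicity read by fluorescence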
[10] = Shn3 3'UTR reporter inhibitors, dose response, cell-based, Clone20 osteoblasts, firefly luciferase, cherry-picked (AID 624132); assay type: functional;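 further: firefly luciferase luminescence from reporter carrying the Shn3 3'UTR in osteoblasts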
[11] = HepG2 cell cytotoxicity, dose response, cytotoxicity control for Shn3 inhibitor project, CellTiter-Glo, cherry-picked (AID 624134); assay type: functional, cell-based
[12] = control 3'UTR Renilla luciferase suppression, dose response, counter-screen for Shn3 inhibitor project, cell-based, Clone20-Shn3RL, cherry-picked (AID 624133); assay type: functional
[13] = Fluorescence-based cell-based high throughput dose response assay for inhibitors of the interaction of nucleotide-binding oligomerization domain containing 2 (NOD2) and the receptor-interacting serine-threonine kinase 2 (RIPK2).; assay type: functional; conditions: Homo sapiens
[14] = miR-122 activators in hepatoma reporter cells, dose response, cell-based, Huh7 psiCHECK-miR122, Renilla luciferase, cherry-picked (AID 651956); assay type: functional;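 further: huh7 hepatoma cells stably carrying a psiCHECK-2 miR-122 sensor plasmid; renilla luciferase signal reporting endogenous miR-122 activity after 48 h compound exposure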
[15] = molecular target: Paired box protein Pax-8 (Homo sapiens, UniProt Q06710); experiment: inhibitors of PAX8-driven TPO luciferase reporter, dose response, RMG-I cells, cherry-pick (AID 687027); assay type: functional, cell-based;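 further: luciferase reporter driven by Pax8 target thyroperoxidase promoter measured by SteadyGlo luminescence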
[16] = A549 cell cytotoxicity, dose response, cytotoxicity control, plate reader, cherry-pick, antagonist series (AID 743412); assay type: functional, cell-based
[17] = HepG2 cell cytotoxicity, dose response, cytotoxicity control, plate reader, cherry-pick, antagonist series (AID 743416); assay type: functional, cell-based
[18] = LGR2 antagonists, dose response, cell-based, HEK293, CRE-luciferase reporter, cherry pick, set 2 (AID 743343); assay type: functional;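 further: transfected cells were stimulated with diluted bursicon conditioned medium after compound addition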
[19] = HEK293T cytotoxicity, dose response, cytotoxicity control for miR-122 modulator project, cell-based, activator set, cherry-pick (AID 720690); assay type: functional;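 further: HEK293T human cells scored for general mammalian cytotoxicity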
[20] = non-specific cell cytotoxicity, dose response, cytotoxicity control for PAX8 inhibitor project, plate reader, dry powder samples (AID 743021); assay type: functional, cell-based
[21] = MC4R antagonists, dose response, counter-screen for LGR2 antagonist project, cell-based, plate reader, cherry pick (AID 743444); assay type: functional;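 further: transfected HEK 293 cells stimulated with alpha-MSH peptide; potency of inhibitors of the alpha-MSH evoked signal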
[22] = HEK293 cell cytotoxicity, dose response, cytotoxicity control, plate reader, cherry-picked samples (AID 743446); assay type: functional, cell-based
[23] = system: HEK293; experiment: HEK293T cell cytotoxicity, dose response, cytotoxicity control, ATP luminescence, cherry-pick samples (AID 687005); assay type: functional, cell-based; conditions: Homo sapiens;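 further: cells exposed to compound for 48 hours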
[24] = HEK293 Cytotoxicity Assay Measured in Cell-Based System Using Plate Reader - 7071-01_Inhibitor_Dose_CherryPick_Activity_Set2.; assay type: functional
[25] = inhibitors of PGC1a acetylation in cells, dose response, cell-based, cherry-picked samples (AID 720514); assay type: functional;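 further: potency may reflect raised or lowered acetylation signal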
[26] = molecular target: T2, Exodeoxyribonuclease V (Escherichia coli (strain K12), UniProt P04993+P07648+P08394); experiment: E. coli RecBCD inhibitors, dose response, counter-screen for AddAB inhibitor project, absorbance, V66 E. coli, mutant T4 phage (AID 492957); assay type: functional, cell-based, Escherichia coli str. K-12 substr. MG1655
T2 sequence (P04993 whole entry): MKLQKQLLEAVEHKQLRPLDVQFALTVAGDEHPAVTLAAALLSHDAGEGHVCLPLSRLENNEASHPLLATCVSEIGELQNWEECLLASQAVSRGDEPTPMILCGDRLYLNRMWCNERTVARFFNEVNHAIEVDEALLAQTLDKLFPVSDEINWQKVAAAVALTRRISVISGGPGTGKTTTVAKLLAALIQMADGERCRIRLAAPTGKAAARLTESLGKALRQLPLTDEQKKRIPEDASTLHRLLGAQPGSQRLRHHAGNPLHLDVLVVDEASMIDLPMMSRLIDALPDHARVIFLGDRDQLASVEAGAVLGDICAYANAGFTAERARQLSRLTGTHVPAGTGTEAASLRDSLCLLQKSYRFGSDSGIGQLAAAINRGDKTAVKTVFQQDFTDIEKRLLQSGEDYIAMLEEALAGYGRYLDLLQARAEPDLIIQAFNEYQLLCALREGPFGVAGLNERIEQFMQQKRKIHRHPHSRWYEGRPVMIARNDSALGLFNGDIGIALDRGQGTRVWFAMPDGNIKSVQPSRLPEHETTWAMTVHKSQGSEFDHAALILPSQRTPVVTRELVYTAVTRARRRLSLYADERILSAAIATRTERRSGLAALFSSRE
T2 sequence (P07648 whole entry): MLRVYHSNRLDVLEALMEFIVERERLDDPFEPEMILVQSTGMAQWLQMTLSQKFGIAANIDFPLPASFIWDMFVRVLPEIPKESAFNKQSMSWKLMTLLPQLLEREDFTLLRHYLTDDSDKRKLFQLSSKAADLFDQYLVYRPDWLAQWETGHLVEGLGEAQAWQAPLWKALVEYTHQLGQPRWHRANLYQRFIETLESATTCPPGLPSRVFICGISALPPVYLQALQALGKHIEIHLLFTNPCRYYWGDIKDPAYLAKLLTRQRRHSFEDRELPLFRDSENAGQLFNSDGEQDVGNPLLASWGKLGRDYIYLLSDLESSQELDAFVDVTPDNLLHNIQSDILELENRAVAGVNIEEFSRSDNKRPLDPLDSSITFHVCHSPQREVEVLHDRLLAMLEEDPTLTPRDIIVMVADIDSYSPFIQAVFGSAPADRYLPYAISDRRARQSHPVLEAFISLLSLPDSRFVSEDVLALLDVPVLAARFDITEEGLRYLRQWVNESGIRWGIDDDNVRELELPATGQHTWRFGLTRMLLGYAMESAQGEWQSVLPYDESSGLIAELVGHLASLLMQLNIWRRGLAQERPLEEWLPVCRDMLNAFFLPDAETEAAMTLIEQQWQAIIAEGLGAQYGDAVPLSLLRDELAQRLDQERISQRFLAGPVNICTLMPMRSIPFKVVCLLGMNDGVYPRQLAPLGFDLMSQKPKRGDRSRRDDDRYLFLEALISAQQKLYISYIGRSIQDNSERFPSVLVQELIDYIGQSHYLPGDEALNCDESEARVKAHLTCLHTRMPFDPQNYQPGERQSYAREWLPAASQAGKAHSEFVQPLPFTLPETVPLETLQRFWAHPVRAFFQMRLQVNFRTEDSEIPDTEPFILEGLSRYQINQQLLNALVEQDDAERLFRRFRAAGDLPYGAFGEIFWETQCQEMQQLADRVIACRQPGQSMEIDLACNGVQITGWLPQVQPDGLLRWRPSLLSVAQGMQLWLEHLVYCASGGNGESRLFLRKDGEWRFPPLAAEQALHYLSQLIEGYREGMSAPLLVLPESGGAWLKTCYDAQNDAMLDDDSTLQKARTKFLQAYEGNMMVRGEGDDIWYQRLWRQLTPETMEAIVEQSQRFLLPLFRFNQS
T2 sequence (P08394 whole entry): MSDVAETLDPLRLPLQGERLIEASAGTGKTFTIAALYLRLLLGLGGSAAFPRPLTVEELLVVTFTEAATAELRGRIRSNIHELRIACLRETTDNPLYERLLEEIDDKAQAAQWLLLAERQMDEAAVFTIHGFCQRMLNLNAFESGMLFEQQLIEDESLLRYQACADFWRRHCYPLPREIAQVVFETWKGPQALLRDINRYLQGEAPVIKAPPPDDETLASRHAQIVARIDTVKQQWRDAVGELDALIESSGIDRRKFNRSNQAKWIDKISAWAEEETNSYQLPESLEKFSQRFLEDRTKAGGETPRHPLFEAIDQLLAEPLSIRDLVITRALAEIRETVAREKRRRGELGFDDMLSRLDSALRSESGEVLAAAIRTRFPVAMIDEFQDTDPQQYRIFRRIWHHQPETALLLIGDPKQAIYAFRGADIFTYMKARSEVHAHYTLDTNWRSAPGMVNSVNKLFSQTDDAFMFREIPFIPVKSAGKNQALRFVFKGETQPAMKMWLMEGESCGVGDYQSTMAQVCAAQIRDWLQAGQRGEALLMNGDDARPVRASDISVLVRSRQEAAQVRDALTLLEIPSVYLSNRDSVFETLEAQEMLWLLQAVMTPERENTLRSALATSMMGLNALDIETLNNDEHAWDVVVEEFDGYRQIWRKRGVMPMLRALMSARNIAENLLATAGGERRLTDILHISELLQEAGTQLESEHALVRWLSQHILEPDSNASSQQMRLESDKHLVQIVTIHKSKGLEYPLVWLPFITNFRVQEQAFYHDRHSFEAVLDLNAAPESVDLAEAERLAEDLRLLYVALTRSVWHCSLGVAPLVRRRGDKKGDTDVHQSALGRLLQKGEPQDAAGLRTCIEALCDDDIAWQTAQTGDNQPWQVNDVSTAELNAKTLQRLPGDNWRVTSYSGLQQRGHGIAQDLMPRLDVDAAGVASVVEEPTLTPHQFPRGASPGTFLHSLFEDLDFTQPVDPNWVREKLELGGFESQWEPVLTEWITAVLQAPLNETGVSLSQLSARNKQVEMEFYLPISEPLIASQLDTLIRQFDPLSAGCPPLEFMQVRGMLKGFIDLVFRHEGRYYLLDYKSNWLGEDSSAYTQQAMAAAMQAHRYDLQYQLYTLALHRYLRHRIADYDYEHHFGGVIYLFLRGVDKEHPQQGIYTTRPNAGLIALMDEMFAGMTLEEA

[27] = molecular target: Beta-galactosidase (Escherichia coli, UniProt Q8VNN2); experiment: beta-galactosidase enzyme inhibitors and activators, dose response, artefact control for CCR6 antagonist project, biochemical, E. coli enzyme, set 3 (AID 504712); assay type: functional
[28] = Counterscreen for AddAB inhibitors: absorbance-based bacterial cell-based high throughput dose response assay for inhibitors of bacterial viability. [Related pubchem assays (depositor defined):AID435030, AID449728, AID449731, AID488942, AID488955, AID488956]; assay type: functional
[29] = molecular target: Caspase-6 (Homo sapiens, UniProt P55212); experiment: human caspase-6 inhibitors, dose response, biochemical, VEID-R110 fluorescence, cherry-pick (AID 720632)
Sequence of Caspase-6 (P55212 24-179 limits assumed): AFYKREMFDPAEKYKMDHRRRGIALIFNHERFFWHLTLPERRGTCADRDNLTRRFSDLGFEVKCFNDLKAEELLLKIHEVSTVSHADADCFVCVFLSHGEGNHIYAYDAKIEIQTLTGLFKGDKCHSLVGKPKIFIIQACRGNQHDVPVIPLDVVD
Sequence of Caspase-6 (P55212 194-293 limits assumed): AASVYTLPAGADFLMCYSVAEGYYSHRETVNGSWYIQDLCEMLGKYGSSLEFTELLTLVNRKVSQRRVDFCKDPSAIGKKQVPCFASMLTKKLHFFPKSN

Sequence of Paired box protein Pax-8 (Q06710 whole entry): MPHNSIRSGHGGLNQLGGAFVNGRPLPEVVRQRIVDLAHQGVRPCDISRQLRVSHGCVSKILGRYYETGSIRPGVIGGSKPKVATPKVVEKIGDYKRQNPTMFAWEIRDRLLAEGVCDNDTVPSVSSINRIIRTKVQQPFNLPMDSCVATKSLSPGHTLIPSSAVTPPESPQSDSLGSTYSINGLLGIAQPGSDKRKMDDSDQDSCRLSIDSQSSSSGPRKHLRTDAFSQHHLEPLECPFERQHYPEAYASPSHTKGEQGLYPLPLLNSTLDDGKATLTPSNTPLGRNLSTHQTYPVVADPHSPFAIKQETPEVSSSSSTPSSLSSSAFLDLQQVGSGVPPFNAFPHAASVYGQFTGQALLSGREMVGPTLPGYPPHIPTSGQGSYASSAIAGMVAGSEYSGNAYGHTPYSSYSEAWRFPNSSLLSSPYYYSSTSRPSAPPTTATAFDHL
Sequence of Beta-galactosidase (Q8VNN2 whole entry): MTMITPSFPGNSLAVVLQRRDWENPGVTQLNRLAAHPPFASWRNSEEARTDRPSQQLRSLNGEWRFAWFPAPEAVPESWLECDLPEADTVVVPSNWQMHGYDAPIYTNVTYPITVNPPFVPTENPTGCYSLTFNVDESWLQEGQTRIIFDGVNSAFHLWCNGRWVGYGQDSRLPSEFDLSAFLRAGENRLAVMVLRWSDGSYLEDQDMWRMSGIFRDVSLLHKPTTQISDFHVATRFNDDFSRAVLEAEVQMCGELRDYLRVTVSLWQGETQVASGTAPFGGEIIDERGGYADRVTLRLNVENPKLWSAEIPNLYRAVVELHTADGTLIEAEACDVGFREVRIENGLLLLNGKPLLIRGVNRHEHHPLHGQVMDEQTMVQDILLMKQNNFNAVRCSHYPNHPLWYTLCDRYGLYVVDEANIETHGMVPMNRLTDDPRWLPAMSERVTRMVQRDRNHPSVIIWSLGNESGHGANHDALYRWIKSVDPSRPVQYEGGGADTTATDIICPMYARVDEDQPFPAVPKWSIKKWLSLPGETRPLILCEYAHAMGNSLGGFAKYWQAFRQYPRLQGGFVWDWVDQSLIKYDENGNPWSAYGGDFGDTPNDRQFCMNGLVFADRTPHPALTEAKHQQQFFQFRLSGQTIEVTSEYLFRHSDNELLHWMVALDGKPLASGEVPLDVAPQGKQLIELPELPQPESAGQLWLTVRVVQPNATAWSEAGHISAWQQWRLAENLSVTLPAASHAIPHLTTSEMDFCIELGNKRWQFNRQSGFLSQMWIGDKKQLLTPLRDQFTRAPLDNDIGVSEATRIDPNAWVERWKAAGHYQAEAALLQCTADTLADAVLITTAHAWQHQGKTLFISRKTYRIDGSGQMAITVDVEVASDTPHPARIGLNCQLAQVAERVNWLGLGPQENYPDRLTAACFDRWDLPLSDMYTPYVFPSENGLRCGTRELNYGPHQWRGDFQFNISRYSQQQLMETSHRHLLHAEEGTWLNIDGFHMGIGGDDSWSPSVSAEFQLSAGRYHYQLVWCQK

Cc1nn(-c2ccc(Br)cc2)c(=O)c2ccccc12
EC50 [1]: > 67.6 µM (inactive) | EC50 [2]: > 67.6 µM (inactive)

Cc1cccc(-n2ncc(Cl)c(Cl)c2=O)c1
EC50 [3]: 1.02 µM (active) | EC50 [4]: > 150 µM (inconclusive) | EC50 [5]: 5.1 µM (inconclusive) | EC50 [6]: 5.17 µM (active) | AC50 [7]: 2.66 µM (active) | AC50 [8]: 3.08 µM (active) | EC50 [9]: 0.556 µM (active) | AC50 [10]: 5.8 µM (active) | AC50 [11]: 40.7 µM (active) | AC50 [12]: 12.4 µM (active) | IC50 [13]: 5.33 µM (active) | AC50 [14]: 8.05 µM (active) | AC50 [15]: 5.11 µM (active) | AC50 [16]: 7.6 µM (active) | AC50 [17]: 8.69 µM (active) | AC50 [18]: 20.4 µM (active) | AC50 [19]: 2.27 µM (active) | AC50 [20]: 25.6 µM (active) | AC50 [21]: 27.5 µM (active) | AC50 [22]: 7.36 µM (active)

Cc1ccc(S(=O)(=O)N[C@H]2C=C[C@@H](CC(=O)N3CCC(Cc4ccccc4)CC3)O[C@H]2CO)cc1
AC50 [23]: 14.2 µM (active) | AC50 [24]: 14.2 µM (active)

O=C(C(Br)=Cc1ccccc1)c1ccccc1
AC50 [25]: 10.9 µM (active)

O=C(O)c1ccc(N/N=C/C=C/c2ccc([N+](=O)[O-])o2)cc1
IC50 [26]: > 119 µM (inactive) | IC50 [27]: 33 µM (active) | IC50 [28]: 55.5 µM (inactive) | AC50 [29]: 3.34 µM (active)
